Measurements: patent US20160214956A1, “NOVEL SOLUBLE GUANYLATE CYCLASE ACTIVATORS AND THEIR USE” (GLAXOSMITHKLINE INTELLECTUAL PROPERTY DEVELOPMENT LIMITED, priority 2013, published 2016)

Experiments:
[1] = target: T1, soluble guanylate cyclase (sGC) (Rattus norvegicus, UniProt P20595); assay: Cellular assay, VASP phosphorylation in rat aortic smooth muscle cells with ODQ; format: cell-based; conditions: phospho-VASP signal, primary rat aortic smooth muscle cells, 10 μM ODQ, 30 min incubation; 50% vs. Bmax; read-out: Cell assay pEC50 (converted)
T1 construct: endogenous in cells; host or cells: primary rat aortic smooth muscle cells
T1 sequence (P20595 1-619): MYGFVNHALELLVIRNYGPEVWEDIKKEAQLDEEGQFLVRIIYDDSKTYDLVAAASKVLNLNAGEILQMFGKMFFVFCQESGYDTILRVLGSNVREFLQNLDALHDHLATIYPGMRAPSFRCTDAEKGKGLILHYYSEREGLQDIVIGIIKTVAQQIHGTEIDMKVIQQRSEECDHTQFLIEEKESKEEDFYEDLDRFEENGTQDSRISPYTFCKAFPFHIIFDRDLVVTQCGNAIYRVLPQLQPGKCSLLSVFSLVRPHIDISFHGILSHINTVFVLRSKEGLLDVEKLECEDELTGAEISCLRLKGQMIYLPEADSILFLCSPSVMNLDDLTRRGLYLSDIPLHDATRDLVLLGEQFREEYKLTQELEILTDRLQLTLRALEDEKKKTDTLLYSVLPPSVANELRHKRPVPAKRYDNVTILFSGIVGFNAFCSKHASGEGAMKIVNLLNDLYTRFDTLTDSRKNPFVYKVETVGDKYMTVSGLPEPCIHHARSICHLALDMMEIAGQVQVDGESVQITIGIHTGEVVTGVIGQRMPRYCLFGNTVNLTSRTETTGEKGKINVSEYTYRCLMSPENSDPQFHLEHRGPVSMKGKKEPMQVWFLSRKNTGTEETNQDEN
T1 sequence (P19686 1-690 partner): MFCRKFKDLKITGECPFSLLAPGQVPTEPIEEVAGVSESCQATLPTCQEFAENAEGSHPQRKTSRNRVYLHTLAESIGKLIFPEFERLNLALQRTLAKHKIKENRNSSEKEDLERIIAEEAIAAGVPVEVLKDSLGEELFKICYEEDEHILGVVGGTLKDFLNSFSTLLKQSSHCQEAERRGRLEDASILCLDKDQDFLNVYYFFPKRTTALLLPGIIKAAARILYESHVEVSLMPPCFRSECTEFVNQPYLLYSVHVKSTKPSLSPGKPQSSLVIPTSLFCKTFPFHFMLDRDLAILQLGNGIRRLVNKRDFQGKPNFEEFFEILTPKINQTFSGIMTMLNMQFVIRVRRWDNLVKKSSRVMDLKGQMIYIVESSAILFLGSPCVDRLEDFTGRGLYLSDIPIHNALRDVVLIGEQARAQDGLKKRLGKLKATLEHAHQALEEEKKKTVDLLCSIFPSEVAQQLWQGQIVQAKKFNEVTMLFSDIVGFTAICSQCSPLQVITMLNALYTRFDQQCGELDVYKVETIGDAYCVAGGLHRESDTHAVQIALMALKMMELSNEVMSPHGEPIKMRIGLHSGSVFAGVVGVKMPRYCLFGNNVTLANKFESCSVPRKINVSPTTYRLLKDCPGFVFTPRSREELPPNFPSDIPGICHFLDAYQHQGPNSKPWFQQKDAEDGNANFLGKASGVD
Procedure: The activity of soluble guanylate cyclase (sGC) was tested in an assay based on measuring phosphorylation of the protein kinase G (PKG) substrate vasodilator-stimulated phosphoprotein (VASP) in rat aortic smooth muscle cells. […] Dimethylsulfoxide (DMSO) vehicle and varying concentrations of the compound to be tested were then added. Following a 30 min incubation at 37° C., media was aspirated and the cells were rinsed with phosphate-buffered saline (PBS) and fixed with 4% formaldehyde in PBS by incubating at room temperature for 20 min. Cells were then washed with PBS and permeabilized for 10 min using 0.1% triton X-100 in PBS. Following PBS rinsing, the cells were blocked for 90 min at room temperature with blocking buffer. The buffer was aspirated and the cells were treated overnight at 4° C. with primary antibody (pSer239-VASP, rabbit polyclonal Ab) diluted 1:500 in blocking buffer. Following three washes with 0.05% Tween 20, the cells were treated for 1 h at room temperature with a fluorescent labeled secondary antibody (IRDye® 800CW Donkey Anti-Rabbit IgG) diluted 1:2500 in blocking buffer with 0.05% Tween 20. Following two washes with PBS, infrared fluorescence was measured using an Odyssey Infrared Imaging System. The activity of a test compound was determined as the pEC50 value which is the concentration able to increase by 50% (vs. Bmax) the phospho-VASP fluorescent signal. Front. Pharmacol., 5 Jul. 2012|doi: 10.3389/fphar.2012.00128, Volume 3 July, 2012, Article number 128.

[2] = system: intraocular pressure; assay: IOP in normal C57BL/6J mice after topical administration; format: in vivo; conditions: 4 microliter to right eye, compared with latanoprost, FIG. 3
Procedure: Additionally, the effect on IOP in normal mice was also assessed. In C57BL/6J mice, IOP was measured at baseline (immediately preceding administration of test article) and at predetermined time points (1, 2, 3, 4, 6, 8, 24 hours) after topical administration of ophthalmic formulations containing drug, vehicle or saline using a TonoLab. Test articles were administered in a 4 microliter volume to the right eye, saline in a 4 microliter volume to the contralateral, left eye. For each animal, the difference between right eye IOP and left eye IOP was calculated as delta IOP.

[3] = system: intraocular pressure; assay: IOP in Japanese White rabbits after topical administration; format: in vivo; conditions: 50 microliter to right eye, FIG. 1
Procedure: (§1) In Japanese White rabbits, IOP was measured at baseline (immediately preceding administration of test article) and at predetermined time points (1, 2, 3, 5, 7, 9, 24 hours; additional time points were 30 and 48 hours after intravitreal administration) after topical (FIG. 1) or intravitreal (FIG. 2) administration of ophthalmic formulations containing drug, vehicle or saline using applanation tonometry. Test articles were topically administered in a 50 microliter volume to the right eye, saline in a 50 microliter volume to the contralateral, left eye. For intravitreal administration, dosing volumes were 20 microliters instead. For each animal, the difference between right eye IOP and left eye IOP was calculated as delta IOP.

[4] = system: intraocular pressure; assay: IOP in Japanese White rabbits after intravitreal administration; format: in vivo; conditions: FIG. 2
Procedure: as §1

Row | EC50 [1] [nM] | SMILES | other results
1 | 151 | COCCCOc1ccc(COc2ccccc2-c2cccc(-n3ncc(C(=O)O)c3C(F)(F)F)n2)c(F)c1 [Example 6, 1-(6-(2-((2-fluoro-4-(3-methoxypropoxy)benzyl)oxy)phenyl)pyridin-2-yl)-5-(trifluoromethyl)-1H-pyrazole-4-carboxylic acid] | 
2 | 5.89 | Cc1cc(OCCCn2ccc(C(F)(F)F)n2)ccc1CCc1ccccc1-c1cccc(-n2ncc(C(=O)O)c2C(F)(F)F)n1 [Example 3, 1-(6-(2-(2-methyl-4-(3-(3-(trifluoromethyl)-1H-pyrazol-1-yl)propoxy)phenethyl)phenyl)pyridin-2-yl)-5-(trifluoromethyl)-1H-pyrazole-4-carboxylic acid] | 
3 | 91.2 | COCCCOc1ccc(COc2ccccc2-c2cccc(-n3ncc(C(=O)O)c3C(F)(F)F)n2)c(C)c1 [Example 10, 1-(6-(2-((4-(3-methoxypropoxy)-2-methylbenzyl)oxy)phenyl)pyridin-2-yl)-5-(trifluoromethyl)-1H-pyrazole-4-carboxylic acid] | 
4 | > 631 | Cc1cc(OCCCC#N)ccc1COc1ccccc1-c1cccc(-n2ncc(C(=O)O)c2C(F)(F)F)n1 [Example 9, 1-(6-(2-((4-(3-cyanopropoxy)-2-methylbenzyl)oxy)phenyl)pyridin-2-yl)-5-(trifluoromethyl)-1H-pyrazole-4-carboxylic acid] | 

Row | SMILES | EC50 [1] [nM] | other results
5 | Cc1cc(OCCCC(F)(F)F)ccc1COc1ccccc1-c1cccc(-n2ncc(C(=O)O)c2C(F)(F)F)n1 [Example 11, 1-(6-(2-((2-methyl-4-(4,4,4-trifluorobutoxy)benzyl)oxy)phenyl)pyridin-2-yl)-5-(trifluoromethyl)-1H-pyrazole-4-carboxylic acid] | 102 | 
6 | Cc1cc(OCCCC(F)(F)F)ccc1CCc1ccccc1-c1cccc(-n2ncc(C(=O)O)c2C(F)(F)F)n1 [Example 1, 1-(6-(2-(2-methyl-4-(4,4,4-trifluorobutoxy)phenethyl)phenyl)pyridin-2-yl)-5-(trifluoromethyl)-1H-pyrazole-4-carboxylic acid] | 14.5 | effect on IOP (delta IOP) [2]: lowered IOP with efficacy similar to latanoprost, but without the initial hypertensive spike; effect on IOP (delta IOP) [3]: dose-dependently and effectively decreased IOP; effect on IOP (delta IOP) ([4]; 20 microliters to right eye): long-lasting and effective reduction in IOP; duration of IOP reduction [4]: at least 48 hours
7 | O=C(O)c1cnn(-c2cccc(-c3ccccc3OCc3ccc(OCCCC(F)(F)F)cc3F)n2)c1C(F)(F)F [Example 5, 1-(6-(2-((2-fluoro-4-(4,4,4-trifluorobutoxy)benzyl)oxy)phenyl)pyridin-2-yl)-5-(trifluoromethyl)-1H-pyrazole-4-carboxylic acid] | 60.3 | 
